Reference: ChEMBL document CHEMBL3739401, “Synthesis, in vitro, and in vivo evaluation of novel functionalized quaternary ammonium curcuminoids as potential anti-cancer agents” (Bioorg Med Chem Lett, 2015)
pIC50: −log10 of the molar value. Active and inactive are the calls of the source. No cut-off for these calls is given here.

Columns and labels:
[1] = Aqueous solubility of compound; assay type: physicochemical; settings: water
[2] = Cytotoxicity against human MIAPaCa2 cells by MTT assay; assay type: functional, cell-based; settings: MIA PaCa-2
[3] = system: MDA-MB-231; assay: Cytotoxicity against human MDA-MB-231 cells by MTT assay; assay type: functional, cell-based
[4] = system: 4T1; assay: Cytotoxicity against mouse 4T1 cells by MTT assay; assay type: functional, cell-based
[5] = system: MDA-MB-231; assay: Cytotoxicity against human MDA-MB-231 cells upto 50 uM by MTT assay; assay type: functional, cell-based
[6] = system: MDA-MB-231; assay: Cytotoxicity against human MDA-MB-231 cells at 20 to 50 uM by MTT assay; assay type: functional, cell-based
[7] = Antitumor activity against human MIAPaCa2 cells xenografted in athymic nude mouse assessed as tumor growth inhibition at 100 mg/kg, ip twice weekly; assay type: functional; settings: MIA PaCa-2, ip, read-out: TGI
[8] = system: Mus musculus; assay: Toxicity in CD-1 mouse assessed as effect on body weight at 50 mg/kg, ip measured after 7 days; assay type: organism-based; settings: in vivo, 168 h
[9] = Antitumor activity against human MIAPaCa2 cells xenografted in athymic nude mouse assessed as tumor growth inhibition at 40 mg/kg, ip bid cotreated with gemcitabine (100 mg/kg, ip twice weekly; assay type: functional, MIA PaCa-2
[10] = system: Mus musculus; assay: Toxicity in CD-1 mouse assessed as sign of stress at 50 mg/kg, ip measured after 7 days; assay type: organism-based; settings: in vivo, 168 h
[11] = system: Mus musculus; assay: Toxicity in CD-1 mouse assessed as sign of stress at 30 mg/kg, ip bid; assay type: organism-based; settings: in vivo
[12] = system: Mus musculus; assay: Toxicity in CD-1 mouse assessed as survival at 30 mg/kg, ip bid; assay type: organism-based; settings: in vivo
[13] = system: Mus musculus; assay: Toxicity in CD-1 mouse assessed as effect on body weight at 30 mg/kg, ip bid; assay type: organism-based; settings: in vivo
[14] = system: Mus musculus; assay: Toxicity in CD-1 mouse assessed as survival at 50 mg/kg, ip measured after 7 days; assay type: organism-based; settings: in vivo, 168 h
[15] = Antitumor activity against human MIAPaCa2 cells xenografted in athymic nude mouse assessed as tumor growth inhibition at 40 mg/kg, ip bid; assay type: functional; settings: MIA PaCa-2, ip, read-out: TGI

C[N+]1(Cc2ccccc2)CCOCC1
solubility [1]: > 100000 µg/mL

C=C(C[N+]1(C)CCOCC1)C(=O)OC
solubility [1]: > 100000 µg/mL

C=C(C[N+]1(C)CCN(c2ccc(/C=C/C(=O)/C=C(O)/C=C/c3ccc(N4CC[N+](C)(CC(=C)C(=O)OCCCCCC)CC4)cc3)cc2)CC1)C(=O)OCCCCCC.[Br-].[Br-]
pIC50 [2]: 5.38 | pIC50 [3]: 5.38 | pIC50 [4]: 5.47 | solubility [1]: 1000 µg/mL

CN1CCN(c2ccc(/C=C/C(=O)/C=C(O)/C=C/c3ccc(N4CCN(C)CC4)cc3)cc2)CC1
pIC50 [2]: < 4.00 | pIC50 [3]: < 4.00 | pIC50 [4]: < 4.00

C=C(C[N+]1(C)CCN(c2ccc(/C=C/C(=O)/C=C(O)/C=C/c3ccc(N4CC[N+](C)(CC(=C)C(=O)N(C)C)CC4)cc3)cc2)CC1)C(=O)N(C)C.[Br-].[Br-]
pIC50 [2]: 4.85 | pIC50 [3]: 4.82 | pIC50 [4]: 4.76 | solubility [1]: 1000 µg/mL

C=C(C(=O)OC)C(O)c1ccccc1 (configuration not stated)
Activity [5]: inactive

COc1cc(/C=C/C(=O)CC(=O)/C=C/c2ccc(O)c(OC)c2)ccc1O [CURCUMIN]
pIC50 [2]: 4.70 | pIC50 [3]: 4.82 | pIC50 [4]: 4.70

COC(=O)/C(=C\c1ccccc1)C[N+]1(C)CCN(c2ccc(/C=C/C(=O)/C=C(O)/C=C/c3ccc(N4CC[N+](C)(C/C(=C/c5ccccc5)C(=O)OC)CC4)cc3)cc2)CC1.[Br-].[Br-]
pIC50 [2]: 5.39 | pIC50 [3]: 5.21 | pIC50 [4]: 5.30 | solubility [1]: 1000 µg/mL

C=C(CBr)C(=O)OC
Activity [6]: Active

C=CC[N+]1(C)CCN(c2ccc(/C=C/C(=O)/C=C(O)/C=C/c3ccc(N4CC[N+](C)(CC=C)CC4)cc3)cc2)CC1.[Br-].[Br-]
pIC50 [2]: < 4.00 | pIC50 [3]: < 4.00 | pIC50 [4]: < 4.00 | solubility [1]: 15000 µg/mL

C=C(C[N+]1(C)CCN(c2ccc(/C=C/C(=O)/C=C(O)/C=C/c3ccc(N4CC[N+](C)(CC(=C)C(=O)OCCCC)CC4)cc3)cc2)CC1)C(=O)OCCCC.[Br-].[Br-]
pIC50 [2]: 5.36 | pIC50 [3]: 5.43 | pIC50 [4]: 5.39 | solubility [1]: 1000 µg/mL

Nc1ccn([C@@H]2O[C@H](CO)[C@@H](O)C2(F)F)c(=O)n1 [GEMCITABINE]
inhibition in vivo at 100 mg/kg [7]: 47%

COC(=O)/C(=C/c1ccccc1)CBr
Activity [6]: Active

O=C(/C=C(O)/C=C/c1ccc(N2CCN(CCO)CC2)cc1)/C=C/c1ccc(N2CCN(CCO)CC2)cc1
pIC50 [2]: < 4.00 | pIC50 [3]: < 4.00 | pIC50 [4]: < 4.00

C[N+]1(Cc2ccccc2)CCN(c2ccc(/C=C/C(=O)/C=C(O)/C=C/c3ccc(N4CC[N+](C)(Cc5ccccc5)CC4)cc3)cc2)CC1.[Br-].[Br-]
pIC50 [2]: < 4.00 | pIC50 [3]: < 4.00 | pIC50 [4]: < 4.00 | solubility [1]: 15000 µg/mL

C=CC[N+]1(C)CCOCC1
solubility [1]: > 100000 µg/mL

C=C(C[N+]1(C)CCN(c2ccc(/C=C/C(=O)/C=C(O)/C=C/c3ccc(N4CC[N+](C)(CC(=C)C(=O)OC)CC4)cc3)cc2)CC1)C(=O)OC.[Br-].[Br-]
pIC50 [2]: 5.57 | pIC50 [3]: 5.44 | Activity [8]: Non-toxic | pIC50 [4]: 5.39 | TGI [9]: 57% | Activity [10]: Non-toxic | Activity [11]: Non-toxic | Activity [12]: Non-toxic | Activity [13]: Non-toxic | solubility [1]: 1000 µg/mL | Activity [14]: Non-toxic | inhibition in vivo at 40 mg/kg [15]: 42%
